Measured values as given in ChEMBL document CHEMBL3507680, “University of Dundee, Gates Library screen for HepG2 cell viability”.

Assay: Human HepG2 cell viability assay in 384 well format
Type: toxicity, cell-based
Design: dose 125 nL, time 70.5 hour; cytotoxicity at 70.5 h: concentration not given beside the values
Settings: HepG2 cells, read-out: Inhibition

COc1cc(NCC(c2ccccn2)N(C)C)ncn1 (centres undefined)
cytotoxicity at 70.5 h: -5.7%

CCc1noc(CN(CC)Cc2cc3ccc(F)cc3[nH]c2=O)n1
cytotoxicity at 70.5 h: 9.1%

CN(C)S(=O)(=O)N1CCN(CC2CCOc3ccccc3C2)CC1 (centres undefined)
cytotoxicity at 70.5 h: -4.7%

COCc1cc(NCc2ccccc2OC)ncn1
cytotoxicity at 70.5 h: -7.89%

Cc1noc(C)c1CCC(=O)N1CCOCC1CC(=O)N1CCCC1 (centres undefined)
cytotoxicity at 70.5 h: 1.48%

O=C(O)[C@@]12CN(c3cnccn3)C[C@@H]1CN(C1CCOCC1)C2
cytotoxicity at 70.5 h: -4.6%

Cc1[nH]c2c(F)cccc2c1CC(=O)N1CCN(C2CCSCC2)CC1
cytotoxicity at 70.5 h: -19.7%

CC1(C(=O)N2CCC(n3cc(C4(O)CCCC4)nn3)CC2)CCCCC1
cytotoxicity at 70.5 h: -9.72%

COc1ccc(OC)c2c(C)cc(N(CCO)CCO)nc12
cytotoxicity at 70.5 h: 19.5%

CCn1cc(SCC(=O)N2CCCC(O)(CO)C2)c2ccccc21 (centres undefined)
cytotoxicity at 70.5 h: -8.91%

CN1CCCN(C(C(=O)O)c2ccc3c(c2)OCO3)CC1 (centres undefined)
cytotoxicity at 70.5 h: 0.827%

CCN(CC)c1ccc(C(=O)N2C[C@@H]3CC[C@H](C2)N(CCOC)C3)cc1
cytotoxicity at 70.5 h: 23.2%

Cc1nc(C)c(C)c(N2C[C@@H](CN3CCCN(C)CC3)[C@@H](CO)C2)n1
cytotoxicity at 70.5 h: -1.83%

Cc1noc(C)c1C(=O)N1C[C@H]2CC[C@@H]1CN(c1cnccn1)C2
cytotoxicity at 70.5 h: -5.44%

CCCS(=O)(=O)N1CCC2(CCC(=O)N(Cc3ccccc3)C2)CC1
cytotoxicity at 70.5 h: -4.86%

CN1CCCN(C(=O)c2csc(-c3ccc(C(F)(F)F)cc3)n2)CC1
cytotoxicity at 70.5 h: -7.23%

COc1ccc(F)cc1-c1nc2c([nH]1)c(C1CC1)nn2C
cytotoxicity at 70.5 h: -4.46%

O=C(c1cccnc1O)N1CCC2(CCCO2)CC1
cytotoxicity at 70.5 h: -6.62%

CCNC(=O)c1cn2cc(-c3ccccc3Cl)n(CC3CC3)c(=O)c2n1
cytotoxicity at 70.5 h: 16.2%

Cc1cc(-c2nc(-c3c(C)ncc4c3CCNC4)no2)nc(C)n1
cytotoxicity at 70.5 h: 26.9%

CC(C)c1nnc(CN2C(=O)OC[C@@H]2C(C)C)o1
cytotoxicity at 70.5 h: -5.17%

Cc1noc(C)c1CN1C[C@@H](C(=O)O)[C@H](c2ccccn2)C1
cytotoxicity at 70.5 h: -6.58%

CC(c1ccccn1)N(C)Cc1cc2cc3c(cc2[nH]c1=O)OCO3 (centres undefined)
cytotoxicity at 70.5 h: 6.6%

COc1ccc(-c2ccnc(N)c2)c(OC)c1
cytotoxicity at 70.5 h: 13.7%

CN(C)S(=O)(=O)N1CC[C@]2(O)CCN(CCc3cccc(F)c3)C[C@@H]2C1
cytotoxicity at 70.5 h: -11.2%

CN(C)C(=O)N1CCN(CCCc2ccccc2)[C@H]2CS(=O)(=O)C[C@H]21
cytotoxicity at 70.5 h: -1.41%

Nc1nccc(N2C[C@@H](CN3CCCCC3)[C@@H](CO)C2)n1
cytotoxicity at 70.5 h: -6.83%

O=C(O)c1ccc(CNC(=O)C2CCN(C(=O)C3CCC3)CC2)s1
cytotoxicity at 70.5 h: -12.2%

CCc1[nH]c2c(CNc3nccc(N)n3)cc(F)cc2c1C
cytotoxicity at 70.5 h: 16.1%

Cc1ncc(S(C)(=O)=O)c(N2CCCCCC2)n1
cytotoxicity at 70.5 h: 7.29%

O=C(Nc1ccc(-c2cscn2)cc1)C1CCCN(Cc2ccon2)C1 (centres undefined)
cytotoxicity at 70.5 h: -1.4%

CCn1c(Cn2cncn2)nnc1C1CCN(Cc2cccnc2)CC1
cytotoxicity at 70.5 h: 9.57%

CN(C)S(=O)(=O)N1CC[C@]2(O)CCN(Cc3cc(F)cc(F)c3)C[C@@H]2C1
cytotoxicity at 70.5 h: 10.9%

CC(C)CN1CCc2[nH]cnc2C12CCN(C(=O)c1ccc[nH]1)CC2
cytotoxicity at 70.5 h: -3.93%

OC1(CNCCc2nc3c(s2)CCCC3)CNCCOC1 (centres undefined)
cytotoxicity at 70.5 h: 4.06%

Clc1ccc2nc(N3CCC(NCCCC4CCOC4)CC3)sc2c1 (centres undefined)
cytotoxicity at 70.5 h: 48.3%

CC(C)OC(=O)N1CCC(Cc2cccc(C(N)=O)c2)C1 (centres undefined)
cytotoxicity at 70.5 h: 35.3%

CN(CCO)C1CCN(c2ncc3c(n2)CCN3c2ccccc2)CC1
cytotoxicity at 70.5 h: -3%

CCC[C@@H]1CN(Cc2c[nH]nc2-c2ccc(F)cc2)C[C@H]1NS(C)(=O)=O
cytotoxicity at 70.5 h: -3.18%

COCCCN(C)[C@@H]1c2ccccc2C2(CCNCC2)[C@H]1O
cytotoxicity at 70.5 h: -9.86%

COc1ccc(CNC(=O)CCN2C[C@@H](C)[C@](O)(C3CC3)C2)cc1
cytotoxicity at 70.5 h: -4.82%

CCN1CCC(CC(=O)N2CCCCC2CCn2cccn2)CC1 (centres undefined)
cytotoxicity at 70.5 h: -11.1%

CN(Cc1csc(-c2ccccc2)n1)C(=O)CCNS(C)(=O)=O
cytotoxicity at 70.5 h: -8.29%

Cc1cc(C(=O)N2CCC(CCC(=O)NCCN(C)C)CC2)ccc1O
cytotoxicity at 70.5 h: 24.4%

COc1cccc(CCC2CCCN(C(=O)c3ccccn3)C2)c1 (centres undefined)
cytotoxicity at 70.5 h: 17.8%

CCC(CO)N(Cc1ccncc1)Cc1c[nH]nc1-c1ccc(F)cc1 (centres undefined)
cytotoxicity at 70.5 h: -7.22%

CCOCCn1c(=O)n(CCC(C)C)c2ncc(C(=O)O)cc21
cytotoxicity at 70.5 h: 1.96%

C[C@@H]1CN(C(=O)c2ccncc2)CC[C@@]1(O)C1CCOCC1
cytotoxicity at 70.5 h: -1.23%

Cc1cc(CN2CCC(CNC(=O)C3(c4ccccc4)CC3)C2)[nH]n1 (centres undefined)
cytotoxicity at 70.5 h: 6.56%

COCCN(C)C[C@H]1CC[C@@H](Cc2ccc3c(cnn3C)c2)O1
cytotoxicity at 70.5 h: -6.52%

COCCn1ccnc1C1CCN(C(=O)CSc2nnc(C)s2)CC1
cytotoxicity at 70.5 h: -5.74%

Cc1ccc(CCN2C(=O)CC[C@H]3CN(Cc4cnn(C)c4)CC[C@H]32)o1
cytotoxicity at 70.5 h: -0.704%

Cc1nc(-c2ccncc2)ncc1C(C)NC(=O)CN1CCCC1=O (centres undefined)
cytotoxicity at 70.5 h: -5.92%

Cc1nc(C)c(CC(=O)N2C[C@H]3CC[C@@H]2CN(c2cnccn2)C3)s1
cytotoxicity at 70.5 h: -4.55%

Cc1ccc(N(CC(=O)NCc2nnc3n2CCC3)S(C)(=O)=O)cc1
cytotoxicity at 70.5 h: 5.02%

O=C(c1ccc(S(=O)(=O)NCc2ccon2)cc1)N1CCOCC1
cytotoxicity at 70.5 h: 19.9%

COc1ccc(CN2CCC(O)(CN3CCCCC3)C2)c(C)c1 (centres undefined)
cytotoxicity at 70.5 h: -1.76%

O=C(c1cccnc1)N1CCOC(CCCc2ccccc2)C1 (centres undefined)
cytotoxicity at 70.5 h: 0.528%

Cn1ncc(C2CC(=O)NCc3nc4ccccn4c32)c1C1CC1 (centres undefined)
cytotoxicity at 70.5 h: -11.4%

CC(C1CCN(Cc2c(Cl)cncc2Cl)CC1)N1CCN(C)CC1 (centres undefined)
cytotoxicity at 70.5 h: 14.7%

CN(C)C(=O)CN1C[C@@H]2CC[C@H](C1)N(Cc1c(F)cccc1Cl)C2
cytotoxicity at 70.5 h: -6.28%

Cc1nccn1CCC1CCCCN1C(=O)c1ccc(N(C)C)cc1 (centres undefined)
cytotoxicity at 70.5 h: -3.37%

CN1C(=O)C(c2ccccc2)CC12CCN(CCN1CCCC1=O)CC2 (centres undefined)
cytotoxicity at 70.5 h: 12.2%

CCSc1ncc(CN2CCN(c3nc(C)ncc3C)CC2)cn1
cytotoxicity at 70.5 h: -11.5%

O=C(NCc1nnc2n1CCC2)c1ccc(C2CCCO2)s1 (centres undefined)
cytotoxicity at 70.5 h: -4.87%

COC(=O)NCC(=O)N1CCC(c2nc3cc(F)ccc3[nH]2)CC1
cytotoxicity at 70.5 h: -2%

Nc1nc2c(c(N3CCCC3)n1)CCN(Cc1ccccn1)CC2
cytotoxicity at 70.5 h: 8.7%

CCCc1nnc(N2CCC(N3CCCC(O)C3)CC2)o1 (centres undefined)
cytotoxicity at 70.5 h: 7.96%

c1ccc(CCc2n[nH]c(C3CCOC3)n2)cc1 (centres undefined)
cytotoxicity at 70.5 h: -10.1%

CCc1nc(C)c(CN2CCOC(CCCC(C)C)C2)[nH]1 (centres undefined)
cytotoxicity at 70.5 h: 27.1%

COc1ccc(OC)c(-n2c(COC(C)C)n[nH]c2=O)c1
cytotoxicity at 70.5 h: -4.44%

CCc1c(C(=O)N2C[C@H]3CC[C@@H]2CN(c2cnccn2)C3)csc1C
cytotoxicity at 70.5 h: -6.26%

COCC(=O)N1C[C@H]2CNC[C@@]2(C(=O)NCc2c(C)noc2C)C1
cytotoxicity at 70.5 h: -0.367%

Cc1cc(C)nc(CN(C)C(=O)c2ccccc2C2CCNC2)c1 (centres undefined)
cytotoxicity at 70.5 h: -5.21%

COc1cccc(C(C(=O)O)N2CCCN(C3CCCC3)CC2)c1OC (centres undefined)
cytotoxicity at 70.5 h: 20.1%

CN(Cc1nccn1C)C(=O)c1cccc(CCC(C)(C)O)c1
cytotoxicity at 70.5 h: 7.23%

Cc1nc(CNC(=O)c2cc(COc3cccc(F)c3)[nH]n2)n[nH]1
cytotoxicity at 70.5 h: 15.3%

O=C(Nc1ccc(F)cc1)C1CNCCN1C(=O)CC1CCCCC1 (centres undefined)
cytotoxicity at 70.5 h: 31.3%

CCc1ocnc1C(=O)N1CCC2(CCCN(CC(C)(C)C)C2=O)C1 (centres undefined)
cytotoxicity at 70.5 h: -6.31%

COCCc1noc(-c2ccc(-c3ccc(N)nc3)nc2)n1
cytotoxicity at 70.5 h: -2.31%

COc1ccccc1OC1CCN(Cc2ccc(N(C)C)nc2)CC1
cytotoxicity at 70.5 h: -6.85%

OC1CCN(c2ccnc(NCCc3ccccc3Cl)n2)CC1
cytotoxicity at 70.5 h: -25.8%

CC(=O)N[C@@H]1CN(Cc2nnc(-c3ccccc3)o2)C[C@H]1C(C)C
cytotoxicity at 70.5 h: -16.1%

CCn1cc(-c2cc(-c3cc(CC(=O)O)cs3)nc(N)c2C#N)c(C)n1
cytotoxicity at 70.5 h: -0.397%

Cc1nc(N2CCC(C(O)c3nccn3C)CC2)c2sccc2n1 (centres undefined)
cytotoxicity at 70.5 h: 35.8%

Cc1nn(C)c2nc(-c3ccccn3)nc(NCCCOC(C)C)c12
cytotoxicity at 70.5 h: -0.266%

Cc1ccc(S(N)(=O)=O)cc1C(=O)N1C[C@@H](CN(C)C)[C@@H](CO)C1
cytotoxicity at 70.5 h: -5.13%

CCc1nnc(SCC(=O)N2CCc3[nH]nc(C4CCC4)c3C2)o1
cytotoxicity at 70.5 h: -2.31%

CCNc1ncc(C(=O)NC(CCN(C)C)c2ccccc2)cn1 (centres undefined)
cytotoxicity at 70.5 h: 26.8%

CSc1ccc2cc(CN(C)CCc3cn[nH]c3)c(=O)[nH]c2c1
cytotoxicity at 70.5 h: 2.27%

COCCN1CCCC2(CCN(Cc3nnc(C4CC4)o3)C2)C1=O (centres undefined)
cytotoxicity at 70.5 h: -6.43%

CCc1cc(C(=O)N2CC[C@@H](c3ccc4c(c3)OCO4)[C@H](O)C2)[nH]n1
cytotoxicity at 70.5 h: 25.7%

O=C(c1ncoc1C1CC1)N1CCCN(CCCc2ccccc2)CC1
cytotoxicity at 70.5 h: -10.2%

Cc1nc(CN2CCCC(CCc3c(F)cccc3F)C2)c[nH]1 (centres undefined)
cytotoxicity at 70.5 h: -2.43%

O[C@H]1[C@H](n2cc(-c3ccccc3)nn2)c2ccccc2C12CCNCC2
cytotoxicity at 70.5 h: 2.04%

Cc1cc(C(=O)N2CCC3(CCCN(CC4CC4)C3=O)C2)c(C)n1C (centres undefined)
cytotoxicity at 70.5 h: -2.9%

CN(CCO)C(=O)c1coc(CN2CCN(c3ccccc3F)CC2)n1
cytotoxicity at 70.5 h: -7.76%

CCOCCn1nc(C)cc1C(=O)N1CCN(C(C)C)C(CC)C1 (centres undefined)
cytotoxicity at 70.5 h: -8.86%

CC(=O)N1CCCn2nc(CNS(=O)(=O)c3cc(C)cs3)cc2C1
cytotoxicity at 70.5 h: -4.2%

CC(C)c1cc(NCC(O)CO)n2nccc2n1 (centres undefined)
cytotoxicity at 70.5 h: -0.638%

CSCCCN1CCn2nc(CNC(C)=O)cc2C1
cytotoxicity at 70.5 h: 14.2%

OCCC1CN(C2CCC2)CCN1C1CCCC1 (centres undefined)
cytotoxicity at 70.5 h: -6.56%

O=C(O)C(c1ccc2c(c1)OCO2)N1CCC(C(=O)N2CCCC2)CC1 (centres undefined)
cytotoxicity at 70.5 h: -2.61%

CC(C)CN1CCCn2nc(CNC(=O)CCN)cc2C1
cytotoxicity at 70.5 h: -6.27%

Cc1cc(N(C)Cc2noc(C)n2)n2nc(C)c(C)c2n1
cytotoxicity at 70.5 h: -8.45%

CCc1ccccc1CN1CC[C@@H](NC(=O)c2cccnc2)[C@H](O)C1
cytotoxicity at 70.5 h: 1.15%

O=C(CCc1cc2n(n1)CCN(Cc1ncc[nH]1)C2)N1CCCC1
cytotoxicity at 70.5 h: 2.55%

Cc1[nH]nc(CCC(=O)N2CCCC(OCc3cccnc3)C2)c1C (centres undefined)
cytotoxicity at 70.5 h: 1.55%

CCCn1cc(C(=O)N(C)Cc2nc(-c3ccccn3)no2)c(C)n1
cytotoxicity at 70.5 h: -8.48%
